Entries after “also recorded” stand apart in the source; their conditions may differ.
Assays:
[1] = intraperitoneal administration to female ddY mice in this test; cited from earlier work
ddY strain mice [2] = experiment: Recovery from hyperglycemia in Alloxan-induced diabetes; type: in vivo, mouse (female ddY strain); conditions: one week after Alloxan 80 mg/kg i.v.; FIG. 5
Procedure: After Alloxan (80 mg/kg) was intravenously administered to female ddY strain mice of 4 week age showing a mean body weight of 25 g, 0.2 ml of vitamin E solution (dissolved in liquid paraffin in a concentration of 5%) was intramuscularly injected per mouse once a day from the next day and 0.2 ml of R-345 (dissolved in physiological saline in a concentration of 2 wt %) was intraperitoneally injected. In the control group, 0.2 ml of physiological saline was intraperitoneally injected per mouse. Blood sugar level was measured one week after administration of Alloxan.

erythrocyte membrane = experiment: Inhibition of tert-butyl hydroperoxide-induced peroxidation of erythrocyte membrane (thiobarbituric acid); type: biochemical, human; conditions: for amount of lipid peroxide / formation of peroxide: human red ghost, tert-butyl hydroperoxide, 37° C., 30 minutes, 535 nm (FIG. 1)
From the text: Human blood cells were subjected to hemolysis and red ghost (membrane segments containing hemoglobin) was collected by a centrifuging machine. […] The reaction product was quantitatively determined by colorimetry at 535 nm.

ddY strain mice [3] = experiment: Reducing toxicity of Adriamycin: survival days of mice; type: in vivo, mouse (female ddY strain); conditions: after Adriamycin; for prolongation of survival days: conclusion; for incidence of death versus control group: vitamin E 200 mg/kg i.p. 4 times or R-345 30 mg/kg i.p. 4 times
ddY strain mice [4] = experiment: Reducing radiation injury (X rays 800 roentgen): survival days of mice; type: in vivo, mouse (female ddY strain); conditions: for mice survived longer than 30 days / mice survived on Day 15 / average number of survival days: X rays 800 roentgen, FIG. 3; for mice survived longer than 30 days: 20 mice, R-345 285 mg/kg i.v. and/or vitamin E 200 mg/kg i.m.; for mice survived on Day 15: R-345 285 mg/kg i.v. 3 times and/or vitamin E 200 mg/kg i.m. 3 times; for average number of survival days: survival longer than 30 days counted as 30 days, control 8.7 days
Procedure: Female ddY strain mice of 4 week age having a mean body weight of 25 g were exposed to X rays of 800 roentgen to examine the number of survival days (dose of LD50 for 30 days was 407 to 466 roentgen).
R-345 (285 mg/kg) was intravenously administered through the tail immediately before exposure to radiation, and on Days 1 and 3 (3 times in total). […] With respect to a mouse survived longer than 30 days, the number of survival days was counted as 30 days to determine the average number of survival days.
Vitamin E (200 mg/kg) was intramuscularly administered 3 days and 1 day before exposure to radiation, and immediately before the exposure (3 times in total).

Stability in water = type: physicochemical
[5] = Oxidation of the reducing agent by tert-butyl hydroperoxide (absorption intensity); type: physicochemical; conditions: addition of tert-butyl hydroperoxide
liver = experiment: Reducing liver toxicity by organic halogen compounds (CCl4 :CHCl3); type: in vivo, mouse (female ddY strain); conditions: for TBA value (lipid peroxide) in liver: Day 1 after CCl4 :CHCl3, FIG. 4a; for calcium content in liver: over 3 days after CCl4 :CHCl3, FIG. 4b
Procedure: In liquid paraffin were dissolved 0.0025 ml of carbon tetrachloride (CCl4) and 0.0050 ml of chloroform (CHCl3) to form 0.1 ml of a solution. The solution was intraperitoneally administered to female ddY strain mice of 4 week age having a mean body weight of 25 g. With passage of day, concentration of lipid peroxide (TBA value, by thiobarbituric acid reaction), calcium concentration and a ratio of saturated fatty acids to unsaturated fatty acids (as an index of fatty liver), in liver were measured over 3 days. […] Ascorbic acid (AsA) and R-345 (4 mg each was dissolved in 0.1 ml of physiological saline, respectively) were intraperitoneally administered once a day every day from 6 hours after CCl4 :CHCl3 was administered to the day before the mice were sacrificed.

Row | Compound | blood sugar level (ddY strain mice [2]) | amount of lipid peroxide / formation of peroxide (erythrocyte membrane) | prolongation of survival days (ddY strain mice [3]) | incidence of death versus control group (ddY strain mice [3]) | mice survived longer than 30 days (ddY strain mice [4]) [mice] | mice survived on Day 15 (ddY strain mice [4]) | average number of survival days (ddY strain mice [4]) [days] | oxidation by tert-butyl hydroperoxide [5] | TBA value (lipid peroxide) in liver (liver) | calcium content in liver (liver) | also measured
1 | COc1cccc2c1C(=O)c1c(O)c3c(c(O)c1C2=O)C[C@@](O)(C(=O)CO)C[C@@H]3O[C@H]1C[C@H](N)[C@H](O)[C@H](C)O1 [Adriamycin] |  |  |  |  |  |  |  |  |  |  | LD50 [1]: 14 mg/kg
2 | O=C1OC(CO)C(=O)C(O)=C1O (centres unmarked) [R-345, 2,3,6-trihydroxy-4-oxo-2-hexen-5-olide] | somewhat higher than normal level | exhibited the activity of inhibiting the formation of peroxide | only a slight prolongation | a slight difference was observed | 2 | 3 out of 20 | 12.9 | hardly oxidized | almost the same as in the control group | almost recovered to normal level | activity of alleviating erythrocyte membrane disturbance induced by a peroxidant, versus ascorbic acid (erythrocyte membrane; conclusion): more effective than ascorbic acid; mice survived longer than 50 days (ddY strain mice [3]; i.p., 10 mice, R-345 30 mg/kg and/or vitamin E 200 mg/kg, FIG. 2): 2 mice; mice died up to about Day 20 (ddY strain mice [3]; R-345 30 mg/kg i.p. 4 times, FIG. 2b): 8 out of 10; increase in average number of survival days compared with the control group (ddY strain mice [4]; R-345 285 mg/kg i.v. 3 times): slight increase; decomposition in water over a long period of time (Stability in water): tends to be decomposed some or less; reduction in absorption intensity at 345 nm [5]: slight; increase in TBA value, calcium content and increase in neutral fat versus control group or vitamin E alone (liver; conclusion): reduced as compared to the control group or the group administered with vitamin E alone
3 | O=C1O[C@H]([C@@H](O)CO)C(O)=C1O [ascorbic acid] |  | increased |  |  |  |  |  | immediately oxidized | particularly high TBA value was noted in some cases | not lowered to normal level | reduction in absorption intensity at 265 nm [5]: markedly reduced; TBA value (lipid peroxide) in liver (liver; listed as AsA): some were higher than in the group administered with physiological saline (control group)
4 | vitamin E | somewhat higher than normal level | exhibited the activity of inhibiting the formation of peroxide | only a slight prolongation | almost the same incidence as noted with the control group | 2 | 2 out of 20 | 11.8 |  |  | not lowered to normal level | mice survived longer than 31 days (ddY strain mice [3]; vitamin E 200 mg/kg i.p. 4 times, FIG. 2c): None; prevention of increase in TBA value (lipid peroxide level) (liver; CCl4 :CHCl3): effect of preventing increase in TBA value (lipid peroxide level) was noted; prevention of increase of calcium level (liver; CCl4 :CHCl3): not noted; prevention of increase in TBA value (lipid peroxide level) (liver; CCl4 :CHCl3, listed as VE): effective for preventing the increase in TBA value; also recorded: prevented an increase in TBA value; recovery of ratio of saturated fatty acid to unsaturated fatty acid in liver (liver; Day 2 after CCl4 :CHCl3, FIG. 4c): recovery would be slower than in the group administered with no VE; recovery to normal level of calcium content on Day 3 (liver; Day 3 after CCl4 :CHCl3, conclusion): a tendency to delay the recovery to normal level

— US5162366A, “Antioxidant composition in vivo comprising enol form δ-lactone of diketogulonic acid” (Nissan Chemical Industries, Ltd., priority 1990, dated 1992)
